Data published in PubChem BioAssay AID1699 (The Scripps Research Institute Molecular Screening Center, 2009).
Activity calls are given as the source filed them.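 The calls were made as follows: active = IC50 on parental Ba/F3 cells at or below 10 µM; inactive = IC50 above 10 µM.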

These compounds were tested on parental Ba/F3 viability, CellTiter-Glo ATP luminescence (assay: parental Ba/F3 viability inhibition, dose response, counter-screen for JAK2V617F inhibitor project, cell-based, luminescence (AID 1699)).
In the case of COC(=O)/C=C/c1ccc(OC(=O)OC)c(OC(=O)OC)c1, the IC50 is reported as 10.7 µM (inactive). Cc1ccc(Cn2ccsc2=NC(=O)CCl)cc1 showed an IC50 of 7.76 µM. O=C(OCn1ncc(Cl)c(Cl)c1=O)c1ccccc1Cl gave an IC50 of 1.2 µM. Work on Cc1ccc(Nc2nc(N)nc(CCl)n2)cc1 yielded an IC50 of 1.42 µM. Compound O=C(CCl)N=c1sccn1Cc1ccc(Cl)cc1Cl has an IC50 of 0.653 µM. Work on COc1ccc(Nc2ccc3c(c2)=NC2(CCCCC2)[N+]=3[O-])cc1 yielded an IC50 of 1.71 µM. Work on Cc1nn2c(NCc3ccccn3)c3c(nc2c1-c1ccccc1)CCC3 yielded an IC50 of 4.28 µM. For COC1(OC)C(/C=C/c2ccc(Cl)cc2)C(C#N)(C#N)C1(OC)OC (configuration not stated), the IC50 was 7.83 µM. In the case of CCOc1ccc(C(=O)C(CN2CCOCC2)c2ccccc2)cc1 (configuration not stated), the IC50 is reported as 2.4 µM. CC1CCCN(CCCNC(=O)c2cc3c(Cl)nc4ccccc4c3s2)C1 (configuration not stated) was tested, and the IC50 was 3.5 µM. Compound [O-][N+]1=c2ccc(Nc3ccccc3)cc2=NC12CCCCC2 has an IC50 of 5.2 µM. CCOc1ccc(Nc2nc(N)nc(CCl)n2)cc1 gave an IC50 of 1.92 µM. Compound COc1cc(/C=C2\COC/C(=C\c3ccc(O)c(OC)c3)C2=O)ccc1O has an IC50 of 3.62 µM. Cc1nc([N+](=O)[O-])c(Br)n1Cc1ccc(Cl)c(Cl)c1 gave an IC50 of 8.44 µM. O=C(/C=C/c1ccc(O)c(O)c1)c1ccc(S(=O)(=O)N2CCCCCC2)cc1 gave an IC50 of 7.51 µM. In the case of COc1ccc(N2CCc3c(C)nc4c(OC)cc(OC)cc4c32)c(OC)c1, the IC50 is reported as 8.32 µM. Compound COc1ccccc1-c1nnc(Sc2nc([N+](=O)[O-])nn2C)o1 has an IC50 of 4.65 µM. In the case of Cc1ccc(NC(=O)C(=Cc2ccc(C(=O)O)cc2)C(=O)Nc2ccc(C)cc2C)c(C)c1, the IC50 is reported as 5.46 µM. With COc1ccc(-c2cc(-c3cc(C)ccc3O)[nH]n2)cc1 the IC50 was 8.76 µM. CN(C)C(=S)SSC(=S)N(C)C showed an IC50 of 0.223 µM. O=C(CSc1nnnn1-c1ccc(F)cc1)c1ccc(O)c(O)c1 was tested, and the IC50 was 11.1 µM (inactive). With Cc1ccc(C)c(Sc2ccc(NC(=O)CCl)cc2)c1 the IC50 was 7.25 µM. O=C(CCl)N(C/C=C/c1ccccc1)c1ccc2c(c1)OCCO2 showed an IC50 of 2.51 µM. In the case of COc1cccc(N(C(=O)CCl)C(C(=O)NCCc2ccccc2)c2cccs2)c1 (configuration not stated), the IC50 is reported as 1.34 µM. Work on CCC(C)[C@@H](NC(=O)OC(C)(C)C)c1nnc(S(=O)(=O)Cc2cccc(C)c2)o1 (some centres not stated) yielded an IC50 of 4.67 µM. In the case of CC1CCCC(NC(=O)NC(=O)CCl)C1C (configuration not stated), the IC50 is reported as 10.6 µM (inactive). CCCOc1ccc(C(=O)C(CN2CCOCC2)c2ccccc2)cc1 (configuration not stated) was tested, and the IC50 was 2.46 µM. With O=C(/C(=N/N=C/c1ccc(O)c(O)c1)c1ccccc1)c1ccccc1 the IC50 was 1.67 µM. For COc1cccc(/C=N/NC(=O)c2[nH]c(C)c(C(=O)N/N=C/c3cccc(OC)c3O)c2C)c1O, the IC50 was 6.66 µM. Cc1ccccc1CS(=O)(=O)c1nnc([C@H](Cc2ccccc2)NC(=O)OC(C)(C)C)o1 was tested, and the IC50 was 5.33 µM. Compound CC(C)C1C(C#N)=C(N)Oc2n[nH]c(-c3ccc4ccccc4c3)c21 (configuration not stated) has an IC50 of 3.56 µM. In the case of Cc1cccc(NC(=O)c2ccc([N+](=O)[O-])o2)c1, the IC50 is reported as 6.88 µM. O=c1oc2ccc(Cl)cc2nc1/C=C(\O)c1ccco1 was tested, and the IC50 was 8.35 µM. For O=C(C=C=Nc1ccccc1)C(=O)N=C=Cc1ccccc1, the IC50 was 10.7 µM (inactive). Compound COc1ccc2nc(C)cc(Sc3nc4ccccc4s3)c2c1 has an IC50 of 6.96 µM. In the case of COc1ccc(OC)c(NS(=O)(=O)c2ccc(SC)cc2)c1, the IC50 is reported as 12.4 µM (inactive). In the case of O=C1C=C(Nc2ccc(O)cc2)C(=O)c2ccccc21, the IC50 is reported as 7.53 µM. c1ccc(CCNc2nc(-c3ccccn3)nc3ccccc23)cc1 was tested, and the IC50 was 3.02 µM. With CCCn1c(CC)nc([N+](=O)[O-])c1S(=O)(=O)c1ccccc1 the IC50 was 5.9 µM. Compound COc1ccccc1C(C[N+](=O)[O-])c1c(N)n(C)c(=O)n(C)c1=O (configuration not stated) has an IC50 of 6.49 µM. With Oc1ccc(/C=N/N2CCN(C3c4ccccc4-c4ccccc43)CC2)cc1O the IC50 was 5.68 µM. With Oc1ccccc1OCCOc1ccccc1OCCOc1ccccc1O the IC50 was 7.12 µM. With CCCC(=O)N(C1CC(C)C(C#N)(C#N)C1(C#N)C#N)N(C)C (configuration not stated) the IC50 was 4.77 µM. Work on COc1cccc(F)c1C(C[N+](=O)[O-])c1c(N)n(C)c(=O)n(C)c1=O (configuration not stated) yielded an IC50 of 4.22 µM. For O=C1C=CC(=O)N1CCNc1ncc(C(F)(F)F)cc1Cl, the IC50 was 1.76 µM. For O=C1/C(=C/c2ccc(O)c(O)c2)SC(=S)N1Nc1ccccc1, the IC50 was 11 µM (inactive). In the case of COc1ccccc1N(C(=O)CCl)c1cn(C(C)=O)c2ccccc12, the IC50 is reported as 4.61 µM. In the case of Cc1c(Cc2ccccc2)c(=O)oc2c(O)c(O)ccc12, the IC50 is reported as 8.62 µM. CC(C)(C)c1cc(NC(=O)CCl)n(-c2ccccc2)n1 was tested, and the IC50 was 3.76 µM. CC(C)(C)/C(O)=C/c1nc2cc(Cl)ccc2oc1=O gave an IC50 of 9.55 µM. Work on CCN1C/C(=C/c2ccc(OC)c(O)c2)C(=O)/C(=C/c2ccc(OC)c(O)c2)C1 yielded an IC50 of 1.5 µM. With O=S(=O)(c1cccs1)N1CCN(c2ccc(O)cc2)CC1 the IC50 was 5.66 µM. With c1ccc2c(CN3CCCCCC3)c[nH]c2c1 the IC50 was 10.7 µM (inactive). Cc1nn(Cc2ccc(Cl)cc2Cl)c(C)c1NC(=O)CCl was tested, and the IC50 was 11.4 µM (inactive). COc1ccc(-n2nnnc2SCC(=O)c2ccc(O)c(O)c2)cc1 showed an IC50 of 3.34 µM. Work on O=C(Nc1cccc(NC(=O)c2cccs2)c1)c1ccc([N+](=O)[O-])o1 yielded an IC50 of 3.7 µM. In the case of Cc1cccc(OCC(=O)Nc2cc(C)ccc2O)c1, the IC50 is reported as > 40 µM (inactive). COc1ccc(-c2cnc3c(c2)CCC3(C#N)C#N)cc1 gave an IC50 of 2.07 µM. Work on Nc1nc(N)c2nc(-c3ccccc3)c(N)nc2n1 yielded an IC50 of 4.61 µM. In the case of COc1cc2c(cc1OC)-c1cc(N3CCCc4ccccc43)nc(=O)n1CC2, the IC50 is reported as 35.6 µM (inactive). Cc1[nH]c(=O)c(C(=O)/C=C/c2ccccc2F)c2c1CCCC2 gave an IC50 of 5.19 µM. c1ccc2c(c1)CSc1sccc1C2=C1CCNCC1 was tested, and the IC50 was 10.5 µM (inactive). For CC1CCN(CCCNC(=O)c2cc3c(Cl)nc4ccccc4c3s2)CC1, the IC50 was 4.39 µM. Work on O=C(O)c1[nH]c(=O)[nH]c(=O)c1F yielded an IC50 of 6.87 µM. For CCCCCCN(C(=O)CCl)c1ccccc1, the IC50 was 2.11 µM. COC(=O)COc1cccc2c(=O)n(CC(=O)NCc3ccc(F)cc3)ccc12 showed an IC50 of 3.34 µM. With O=C(CCl)N=c1sccn1Cc1ccccc1Cl the IC50 was 1.11 µM. In the case of CCCCn1c(=N)n(CC(=O)c2ccc(Br)s2)c2ccccc21, the IC50 is reported as 4.37 µM. With Cc1cc(SCC(=O)N/N=C/c2ccc(O)c(O)c2)c(C)cc1Br the IC50 was 10.7 µM (inactive). C/C(=C\c1ccc(N(C)C)cc1)[N+](=O)[O-] gave an IC50 of 3.5 µM. With O=C(CCl)NC(=O)NC12CC3CC(CC(C3)C1)C2 the IC50 was 4.37 µM. In the case of O=C(CCl)NCc1cc(-c2ccc(Cl)cc2)no1, the IC50 is reported as 8.35 µM. Work on C#CCSc1nsc(SCC#C)c1C#N yielded an IC50 of 2.83 µM. For Cc1ccc2nc(C)cc(Nc3ccc([N+](=O)[O-])cc3)c2c1, the IC50 was 3.31 µM. CCCc1nc2ccccc2c(=O)n1/N=C/c1ccc(O)c(O)c1 showed an IC50 of 3.62 µM. In the case of Oc1ccc(Cl)cc1N=Cc1sc2ccccc2c1Cl, the IC50 is reported as 5.94 µM. Nc1nc(CCl)nc(Nc2ccc3ccccc3c2)n1 was tested, and the IC50 was 1.08 µM. In the case of CCN(CC)S(=O)(=O)c1cccc(-n2c(O)c(C=Nc3ccccc3C(=O)O)c3ccccc3c2=O)c1, the IC50 is reported as > 40 µM (inactive). Cc1ccccc1CS(=O)(=O)c1nnc([C@H](CC(C)C)NC(=O)OC(C)(C)C)o1 gave an IC50 of 1.68 µM. Clc1ccc(-n2nnnc2Sc2ncnc3sccc23)cc1 showed an IC50 of 2.91 µM. O=C(Oc1cccc2c(O)cccc12)c1ccccc1 showed an IC50 of 6.51 µM. COc1ccc(Nc2nc(N)nc(CCl)n2)cc1 showed an IC50 of 2.66 µM. O=C(NC1C=CS(=O)(=O)C1)c1sc2ccccc2c1Cl (configuration not stated) was tested, and the IC50 was 13.8 µM (inactive). Work on CS(=O)(=O)c1nc(-c2ccco2)cc(C(F)(F)F)n1 yielded an IC50 of 2.28 µM. In the case of CN(c1ccccc1)S(=O)(=O)c1cccc(C(=O)NCCc2ccc(O)c(O)c2)c1, the IC50 is reported as > 40 µM (inactive). Cc1nc2c(=O)n(C)c(=O)n(C)c2nc1Cl gave an IC50 of 4.55 µM. With Cc1cccc(CS(=O)(=O)c2nnc([C@H](Cc3ccccc3)NC(=O)OC(C)(C)C)o2)c1 the IC50 was 3.64 µM. Cc1cccc(N(Cc2ccccc2)C(=O)CCl)c1 gave an IC50 of 1.63 µM. Compound Cc1cccc(Nc2nc(N)nc(CCl)n2)c1C has an IC50 of 2.07 µM. In the case of O=C(OCn1ncc(Cl)c(Cl)c1=O)c1ccc(F)cc1, the IC50 is reported as 1.14 µM. Work on O=c1cnn([C@@H]2O[C@H](CO)[C@@H](O)[C@H]2O)c(=O)[nH]1 yielded an IC50 of 6.8 µM. For O=C(CCl)N=c1sccn1Cc1cccc2ccccc12, the IC50 was 1.04 µM. Cc1oc2c(O)c(O)ccc2c(=O)c1-c1cnn(-c2ccccc2)c1 gave an IC50 of 2.97 µM. COc1ccc([N+](=O)[O-])c(S(=O)(=O)c2ccc(Cl)cc2)n1 gave an IC50 of 3.26 µM. Nc1nc(CCl)nc(N(c2ccccc2)c2ccccc2)n1 gave an IC50 of 1.26 µM. Work on N#C/C(=C\c1ccc(O)c(O)c1)C(=O)NCCCc1ccccc1 yielded an IC50 of 6.01 µM. With O=S(=O)(c1cnc(Cl)c(Br)c1)N1CCc2ccccc21 the IC50 was 5.31 µM. With O=C(Nc1cccc2c1[nH]c1ccccc12)C(F)(F)F the IC50 was 13.7 µM (inactive). In the case of CNC(=O)c1nnsc1S(=O)c1ccc(Cl)cc1 (configuration not stated), the IC50 is reported as 2.26 µM. With Cc1nc([N+](=O)[O-])c(Br)n1CC(=O)c1ccc2ccccc2c1 the IC50 was 3.68 µM. Cc1[nH]c2ccccc2c(=O)c1C(=O)/C=C/c1ccccc1 was tested, and the IC50 was 3.12 µM. For O=C1C=CCC(/C=C/c2ccccc2)O1 (configuration not stated), the IC50 was 8.52 µM. With O=S(=O)(c1cnc(Cl)c(Cl)c1)N1CCc2ccccc21 the IC50 was 15.8 µM (inactive). Work on Cc1cc2[nH]c3c(c[n+](C)c4ccccc34)c2cc1C yielded an IC50 of 3.85 µM. Compound CC(C)(C)OC(=O)N[C@@H](Cc1ccccc1)c1nnc(S(=O)(=O)Cc2cccc(F)c2)o1 has an IC50 of 3.74 µM. In the case of COc1ccc(C2=Nn3c(nnc3C3CCCCC3)SC2)cc1OC, the IC50 is reported as 7.52 µM. Compound CCCn1c(CN(C)Cc2ccccc2)nc2c1c(=O)n(C)c(=O)n2C has an IC50 of 8.17 µM.
